Measurements from PMC8308639, “Synthesis and Human Carbonic Anhydrase I, II, IX, and XII Inhibition Studies of Sulphonamides Incorporating Mono-, Bi- and Tricyclic Imide Moieties” (Pharmaceuticals, 2021).
Where a name gives a salt, the structure may show the parent alone. Read-outs that look alike come from different tables or passages of the source.

Assays:
hCA IX = hCA IX (Homo sapiens, UniProt Q16790); experiment: CA-catalysed CO2 hydration stopped-flow inhibition assay, hCA IX; settings: for Ki: stopped-flow CO2 hydration, mean ± standard error, three assays; for Selectivity Ratio A = hCA II/IX: ratio of Ki hCA II / Ki hCA IX
Qualitative solubility = type: physicochemical
hCA XII = hCA XII (Homo sapiens, UniProt O43570); experiment: CA-catalysed CO2 hydration stopped-flow inhibition assay, hCA XII; settings: for Ki: stopped-flow CO2 hydration, mean ± standard error, three assays; for Selectivity Ratio B = hCA II/XII: ratio of Ki hCA II / Ki hCA XII
hCA I = hCA I (Homo sapiens, UniProt P00915); experiment: CA-catalysed CO2 hydration stopped-flow inhibition assay, hCA I
hCA II = hCA II (Homo sapiens, UniProt P00918); experiment: CA-catalysed CO2 hydration stopped-flow inhibition assay, hCA II
[1] = Ki (nM) hCA II, mean ± standard error, three assays

Sequence of hCA I (P00915 whole entry): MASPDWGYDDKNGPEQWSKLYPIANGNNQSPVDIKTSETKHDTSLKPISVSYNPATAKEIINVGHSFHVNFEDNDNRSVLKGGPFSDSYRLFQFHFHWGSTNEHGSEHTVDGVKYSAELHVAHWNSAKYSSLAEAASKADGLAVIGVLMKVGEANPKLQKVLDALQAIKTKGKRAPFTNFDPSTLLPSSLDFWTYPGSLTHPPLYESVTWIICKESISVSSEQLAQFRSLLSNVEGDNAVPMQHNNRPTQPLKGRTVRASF
Sequence of hCA XII (O43570 25-354): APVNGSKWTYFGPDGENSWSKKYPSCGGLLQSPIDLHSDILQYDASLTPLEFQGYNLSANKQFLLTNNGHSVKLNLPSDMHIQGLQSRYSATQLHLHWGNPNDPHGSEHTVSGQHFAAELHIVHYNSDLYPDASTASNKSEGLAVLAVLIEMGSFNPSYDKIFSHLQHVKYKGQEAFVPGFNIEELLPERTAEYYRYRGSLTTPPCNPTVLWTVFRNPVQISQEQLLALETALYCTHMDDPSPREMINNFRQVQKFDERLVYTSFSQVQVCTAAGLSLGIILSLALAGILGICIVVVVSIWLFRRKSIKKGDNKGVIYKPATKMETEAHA

| SMILES | Ki (hCA IX; Ki (nM) hCA IX) [nM] | solubility in water (Qualitative solubility) | Ki (hCA XII; Ki (nM) hCA XII) [nM] | melting point [°C] | other results |
| --- | --- | --- | --- | --- | --- |
| NS(=O)(=O)c1ccc(CN2C(=O)c3c(Cl)c(Cl)c(Cl)c(Cl)c3C2=O)cc1 [Compound 7, 4-((4,5,6,7-Tetrachloro-1,3-dioxoisoindolin-2-yl) Methyl) Benzenesulphonamide] | 103 ± 5 | insoluble |  |  |  |
| NS(=O)(=O)c1ccc(N2C(=O)c3c(Cl)c(Cl)c(Cl)c(Cl)c3C2=O)c(Cl)c1 [Compound 12, 3-chloro-4-(4,5,6,7-tetrachloro-1,3-dioxoisoindolin-2-yl)benzenesulphonamide] | 49 ± 0.4 | insoluble | 22 ± 1.7 | 303 |  |
| NS(=O)(=O)c1ccc(N2C(=O)c3c(Cl)c(Cl)c(Cl)c(Cl)c3C2=O)c(F)c1 [Compound 11, 3-fluoro-4-(4,5,6,7-tetrachloro-1,3-dioxoisoindolin-2-yl) benzenesulphonamide] | 88 ± 7 | insoluble | 14 ± 1 | 278 |  |
| NS(=O)(=O)c1ccc2sc(N3C(=O)c4c(Cl)c(Cl)c(Cl)c(Cl)c4C3=O)nc2c1 [Compound 3, 2-(4,5,6,7-tetrachloro-1,3-dioxoisoindolin-2-yl) benzo[d]thiazole-5-sulphonamide] | 933 ± 56 | fully soluble | 80 ± 7 | 302.2 | Selectivity Ratio A = hCA II/IX (hCA IX): 0.795; Ki (hCA I): 258 ± 12 nM |
| NS(=O)(=O)c1ccc(N2C(=O)c3cccc4c(S(=O)(=O)O)ccc(c34)C2=O)cc1 (as salt: potassium) [Compound 1, 4-(4-sulfo-1,8-napthalic-1,3-dioxopyridine) potassium benzenesulphonamide] |  |  |  | 277 |  |
| NS(=O)(=O)c1ccc2sc(N3C(=O)c4c(Br)c(Br)c(Br)c(Br)c4C3=O)nc2c1 [Compound 4, 2-(4,5,6,7-Tetrabromo-1,3-dioxoisoindolin-2-yl) Benzo[d]Thiazole-5-Sulphonamide] | 4030 ± 237 | insoluble | 87 ± 6 |  | Ki (hCA II; [1]): 44 ± 1.9 nM; Selectivity Ratio B = hCA II/XII (hCA XII): 0.506; Selectivity Ratio A = hCA II/IX (hCA IX): 0.011; Ki (hCA I): 463 ± 29 nM |
| NS(=O)(=O)c1cccc(N2C(=O)c3c(Cl)c(Cl)c(Cl)c(Cl)c3C2=O)c1 [Compound 9, 3-(4,5,6,7-tetrachloro-1,3-dioxoisoindolin-2-yl) benzenesulphonamide] | 498 ± 34 | insoluble | 316 ± 28 | 308 |  |
| NS(=O)(=O)c1ccc(N2C(=O)c3c(Cl)c(Cl)c(Cl)c(Cl)c3C2=O)cc1 [Compound 6, 4-(4,5,6,7-tetrachloro-1,3-dioxoisoindolin-2-yl) benzenesulphonamide] |  | insoluble |  |  |  |
| NS(=O)(=O)c1ccc(CCN2C(=O)c3c(Cl)c(Cl)c(Cl)c(Cl)c3C2=O)cc1 [Compound 8, 4-(2-(4,5,6,7-tetrachloro-1,3-dioxoisoindolin-2-yl)ethyl)benzenesulphonamide] |  | insoluble | 226 ± 13 | 286 |  |
| NS(=O)(=O)c1ccccc1N1C(=O)c2c(Cl)c(Cl)c(Cl)c(Cl)c2C1=O [Compound 10, 2-(4,5,6,7-tetrachloro-1,3-dioxoisoindolin-2-yl) benzenesulphonamide] | 559 ± 26 | insoluble | 309 ± 24 | 313 |  |
| NS(=O)(=O)c1ccc(N2C(=O)c3ccc([N+](=O)[O-])cc3C2=O)c(F)c1 [Compound 5, 3-fluoro-4-(5-nitro-1,3-dioxoisoindolin-2-yl) benzenesulphonamide] | 4900 ± 300 | insoluble | 75 ± 4 | 232 | Ki (hCA II; [1]): 4.6 ± 0.3 nM; Selectivity Ratio B = hCA II/XII (hCA XII): 0.061; Ki (hCA I): 400 ± 31 nM |
| NS(=O)(=O)c1ccc(CCN2C(=O)C=CC2=O)cc1 [Compound 2, 4-(2-(2,5-dioxo-2H-pyrrol-1(5H)-yl)ethyl)benzenesulphonamide] | 7420 ± 348 | insoluble | 69 ± 4.5 | 210 |  |
| NS(=O)(=O)c1ccc(S(=O)(=O)Nc2cccc3c(Cl)c[nH]c23)cc1 [IND, Indisulam, reference compound] |  |  |  |  | Ki (hCA XII; read-out: Ki (nM) hCA XII): 3.4 ± 0.2 nM |
| NS(=O)(=O)c1ccc(N2C(=O)c3c(Cl)c(Cl)c(Cl)c(Cl)c3C2=O)c(Br)c1 [Compound 13, 3-bromo-4-(4,5,6,7-tetrachloro-1,3-dioxoisoindolin-2-yl) benzenesulphonamide] | 40 ± 1.5 | insoluble | 99 ± 3.5 | 265 |  |
| NS(=O)(=O)c1ccc(N2C(=O)c3cccc4c(S(=O)(=O)O)ccc(c34)C2=O)cc1 [Compound 1, 4-(4-sulfo-1,8-napthalic-1,3-dioxopyridine) potassium benzenesulphonamide] |  | fully soluble |  |  | Ki (hCA II; read-out: Ki (nM) hCA II, mean ± standard error, three assays): 13 ± 0.9 nM; Ki (hCA IX; read-out: Ki (nM) hCA IX): 7770 ± 145 nM; Ki (hCA I; read-out: Ki (nM) hCA I, stopped-flow CO2 hydration, mean ± standard error, three assays): 49 ± 3.2 nM |
